We go through 18 compounds from paper PMC12169749, “Isolation, biochemical characterization, and primary structure and active site determination of Dioscorea opposita (‘Nagaimo’) oligopeptidase B” (Biochemistry and Biophysics Reports, 2025).

Molecules are shown by their SMILES. Numbered stars: 1 amine (or outer) side, 2 acyl side, 3 side chain; on linkers, the order of the positions; unused ones are H or OH. Peptide text beside a SMILES is read from it. * marks the point of attachment. AMC = Cc1cc(=O)oc2cc(N*)ccc12; Cbz = O=C(OCc1ccccc1)*; Boc = CC(C)(C)OC(=O)*; CO = O=C([*:1])[*:2]

The test system of one test is T1, oligopeptidase B (OPB); Nagaimo protease.
T1 construct: native, purified from tubers; monomer, 75 kDa by gel filtration, 81 kDa by reducing SDS-PAGE; internal tryptic peptide SAGGLLMGAVLNMR
As to the kind of experiment: fluorometric AMC release, Lineweaver-Burk. As to conditions: Tris-HCl pH 8.0, 37 °C. Format: biochemical, Dioscorea polystachya. The source says: fluorometric AMC release, Lineweaver-Burk on oligopeptidase B (OPB); Nagaimo protease
On to `Cc1cc(=O)oc2cc(NC(=O)[C@H](CCCCN)NC(=O)[C@H](CCCCN)NC(=O)[C@H](CCC(=O)O)NC(=O)OC(C)(C)C)ccc12` [Boc-Glu-Lys-Lys-MCA] (Boc-Glu-Lys-Lys-{AMC}), for which the Km (as a rule, the substrate concentration at which the rate is half of its maximum) was 5 µM.

Regarding `Cc1cc(=O)oc2cc(NC(=O)[C@H](CCCNC(=N)N)NC(=O)[C@@H]3CCCN3C(=O)CNC(=O)OCc3ccccc3)ccc12` [Z-Gly-Pro-Arg-MCA] (Cbz-Gly-Pro-Arg-{AMC}), the Km amounted to 11.8 µM.

As for `Cc1cc(=O)oc2cc(NC(=O)[C@H](CCCNC(=N)N)NC(=O)[C@@H](NC(=O)[C@@H](NC(=O)OCc3ccccc3)C(C)C)C(C)C)ccc12` [Z-Val-Val-Arg-MCA] (Cbz-Val-Val-Arg-{AMC}), the Km was determined as 10 µM.

Consider `Cc1cc(=O)oc2cc(NC(=O)[C@H](CCCNC(=N)N)NC(=O)[C@@H]3CCCN3C(=O)[C@@H](NC(=O)OC(C)(C)C)C(C)C)ccc12` [Boc-Val-Pro-Arg-MCA] (Boc-Val-Pro-Arg-{AMC}), for which the Km was determined as 12.5 µM.

`Cc1cc(=O)oc2cc(NC(=O)[C@H](CCCNC(=N)N)NC(=O)[C@H](CCCNC(=N)N)NC(=O)[C@H](CCC(N)=O)NC(=O)OC(C)(C)C)ccc12` [Boc-Gln-Arg-Arg-MCA] (Boc-Gln-Arg-Arg-{AMC}): the Km was 15 µM.

In the case of `Cc1cc(=O)oc2cc(NC(=O)[C@H](CCCNC(=N)N)NC(=O)c3ccccc3)ccc12` [Bz-Arg-MCA], the Km came to 10 µM.

In the case of `Cc1cc(=O)oc2cc(NC(=O)[C@H](CCCNC(=N)N)NC(=O)[C@H](Cc3ccccc3)NC(=O)[C@@H]3CCCN3)ccc12` [Pro-Phe-Arg-MCA] (H-Pro-Phe-Arg-{AMC}), the Km was found to be 10 µM.

As to `Cc1cc(=O)oc2cc(NC(=O)[C@H](CCCCN)NC(=O)[C@H](CC(C)C)NC(=O)[C@@H](NC(=O)OC(C)(C)C)C(C)C)ccc12` [Boc-Val-Leu-Lys-MCA] (Boc-Val-Leu-Lys-{AMC}), the Km amounted to 10 µM.

As to `Cc1cc(=O)oc2cc(NC(=O)[C@@H](N)CCCNC(=N)N)ccc12` [Arg-MCA], the Km came out at 17.9 µM.

As for `Cc1cc(=O)oc2cc(NC(=O)[C@H](CCCNC(=N)N)NC(=O)[C@H](CC(C)C)NC(=O)OCc3ccccc3)ccc12` [Z-Leu-Arg-MCA], the Km is 12.5 µM.

For `Cc1cc(=O)oc2cc(NC(=O)[C@H](CCCNC(=N)N)NC(=O)[C@H](Cc3ccccc3)NC(=O)OCc3ccccc3)ccc12` [Z-Phe-Arg-MCA] (Cbz-Phe-Arg-{AMC}), the Km turned out to be 11 µM.

Turning to `Cc1cc(=O)oc2cc(NC(=O)[C@H](CCCNC(=N)N)NC(=O)[C@H](CCCNC(=N)N)NC(=O)OCc3ccccc3)ccc12` [Z-Arg-Arg-MCA] (Cbz-Arg-Arg-{AMC}), the Km was determined as 10 µM.

For another test, the target named is T1, oligopeptidase B (OPB); Nagaimo protease. Put plainly: fluorometric AMC release, inhibitor titration. Format: biochemical, Dioscorea polystachya. As to conditions: 100 μM Bz-Arg-MCA, 50 mM Tris-HCl pH 8.0, 10 min preincubation at 23 °C, assay 37 °C. The text has this: fluorometric AMC release, inhibitor titration on oligopeptidase B (OPB); Nagaimo protease
Regarding `CC(C)[C@H](NC(=O)[C@H](CCCNC(=N)N)NC(=O)N[C@@H](Cc1ccccc1)C(=O)O)C(=O)N[C@H](C=O)CCCNC(=N)N` [Antipain] ({Phe-CO}-Arg-Val-Arg-aldehyde), 210 nM corresponded to half-maximal inhibition (IC50).

Take `CC(=O)N[C@@H](CC(C)C)C(=O)N[C@@H](CC(C)C)C(=O)N[C@H](C=O)CCCNC(=N)N` [Leupeptin]: 120 nM corresponded to half-maximal inhibition (IC50).

The same test, now with this note: 100 μM Bz-Arg-MCA, 50 mM Tris-HCl pH 8.0, 10 min preincubation at 23 °C, assay 37 °C; covalent.
For the compound `O=c1oc(Cl)c(Cl)c2ccccc12` [DCI, 3,4-dichloroisocoumarin], the half-maximal inhibitory concentration (IC50) (as a rule, the concentration that inhibits the measured activity by half) is 30000 nM.

For `NCCc1ccc(S(=O)(=O)F)cc1` [AEBSF, 4-(2-aminoethyl)-benzenesulfonyl fluoride], the midpoint of inhibition, the IC50, lay at 700 nM.

In turn, `Cc1ccc(S(=O)(=O)N[C@@H](CCCCN)C(=O)CCl)cc1` [TLCK] gave an IC50 of 70 nM.

The test is the same for the next values; noted with them: 100 μM Bz-Arg-MCA, 50 mM Tris-HCl pH 8.0, 10 min preincubation at 23 °C, assay 37 °C; covalent, cysteine-directed.
`CCN1C(=O)C=CC1=O` [NEM, N-ethylmaleimide]: half-maximal inhibition (IC50) required 880000 nM.
